Entries after “also recorded” stand apart in the source; their conditions may differ. Where a SMILES comes first, the peptide text is derived from it. The star is where a group is joined. Boc = CC(C)(C)OC(=O)*; CH2Cl = ClC*
What was measured:
hippocampal slices [1] = experiment: Hippocampal slice survival after 10 min anoxia (Example 7A); format: cell-based, rat
Method: Hippocampal slices (400 um) were prepared from Sprague Dawley rats (6 to 7 weeks) and maintained in an interface chamber at 35° C. using conventional techniques, i.e., the lower surface of the slice received a constant perfusion (0.5 ml/min) of ACSF, while the upper surface was exposed to a moist atmosphere of O2 :CO2 (95%:5%) exchanged at a rate of 2 L/min. The ACSF medium contains (in mM): NaCl (124), KCl (3), KHPO4 (2.5), CaCl (3.4), NaHCO3 (26) and D-Glucose (10). Field excitatory post-synaptic responses were recorded from stratum radiatum of CAlb in response to stimulation of Schaffer-commissural fibers in CAla or CAlc. The depth of the recording electrode was optimized and evoked responses were collected at a rate of one evoked response every 30 seconds.
For the initial screening procedure, 14 to 16 slices are harvested from the hippocampus of a single rat and placed in a common ACSF bath. Each slice is tested in sequence to determine the magnitude of its pre-anoxic evoked response. Five stimulation pulses (each 0.1 ms (millisecond) in duration) were presented over a 15 second interval. The largest evoked response was noted and recorded for each slice.
After the one hour drug incubation period, the oxygen-enriched atmosphere of the chamber was made anoxic by substituting nitrogen for oxygen (N2 =95%; CO^2 =5%). The slices were retained in this anoxic environment for 10 minutes, following which the oxygen-enriched atmosphere (O^2 =95%; CO2 =5%) was reestablished.
The slices were given the opportunity to recover for 30 minutes following reoxygenation whereupon each was stimulated and the maximum evoked potential determined, as described above during the pre-anoxia period. Those slices which, after anoxia, produced a maximum evoked potential of greater than 50% of that observed prior to anoxia were defined as surviving slices.

hippocampal slices [2] = experiment: Hippocampal slice evoked potential recovery after anoxia (Example 7B); format: cell-based, rat
Method: As in Example 7A, hippocampal slices (400 μm) were prepared from Sprague Dawley rats (6-7 weeks) and maintained in an interface chamber at 35° C. using conventional techniques, i.e. the lower surface of the slice received a constant perfusion (0.5 ml/min) of an artificial cerebrospinal fluid (ACSF), while the upper surface was exposed to a moist atmosphere of O2 :CO2 (95%:5%) exchanged at a rate of 2 L/min. The ACSF medium contains (in mM): NaCl (124), KCl (3), KHPO4 (1.25), MgSO4 (2.5), CaCl2 (3.4), NaHCO3 (26) and D-Glucose (10). Field excitatory post-synaptic responses were recorded from stratum radiatum of CA1b in response to stimulation of Schaffer-commissural fibers in CA1a or CA1c. The depth of the recording electrode was optimized and evoked responses were collected at a rate of one evoked response every 30 seconds.
After establishing a stable baseline of evoked responses (approximately 10 minutes), ACSF containing Calpain Inhibitor was washed into the chamber and slices were incubated for a period of one hour. After incubation, evoked responses were again recorded and the change in the amplitude of the responses from baseline levels was noted. No effect of the inhibitors tested on baseline evoked responses was observed.
For anoxia experiments, incubation in the drug-containing medium was followed by replacement of the O2 :CO2 (95%:5%) atmosphere with N2 :CO2 (95%:5%). Slices were exposed to this anoxic environment until disappearance of the pre-synaptic fiber volley and for two minutes (severe anoxia) longer (total time in anoxic environment approximately 7-8 minutes in control case). Effects of Calpain Inhibitors on the functional recovery of the slices after the anoxic episode were then measured. Recovery of the evoked potential (EPSP) slope and amplitude by the drug treated slices can be compared to control slices to determine the relative efficacy of various Calpain Inhibitors.

[3] = target: T1, Cathepsin B from bovine spleen (Bos taurus, UniProt P07688); experiment: Cathepsin B Ki (Table 1B(i)); format: biochemical; details: substrate Z-Lys-4-nitrophenylphosphate
T1 construct: Cathepsin B from bovine spleen was assayed using Z-Lys-4-nitrophenylphosphate as substrate; from tissue; host or cells: bovine spleen
Method: The Peptide Keto-Compounds are reversible inhibitors of Calpains and other thiol proteases. […] Cathepsin B from bovine spleen was assayed using Z-Lys-4-nitrophenylphosphate as substrate.
The Ki value for the inhibition of Calpains and cathepsin B by several Peptide Keto-Compounds are shown in μM (micromolar). The values for leupeptin, which is commercially available from Calbiochem of La Jolla, Calif., are shown for comparison.

Papain = target: T2, Papain (Carica papaya, UniProt P00784); experiment: Papain KI (Table 1B(ii)); format: biochemical
T2 sequence (P00784 134-345): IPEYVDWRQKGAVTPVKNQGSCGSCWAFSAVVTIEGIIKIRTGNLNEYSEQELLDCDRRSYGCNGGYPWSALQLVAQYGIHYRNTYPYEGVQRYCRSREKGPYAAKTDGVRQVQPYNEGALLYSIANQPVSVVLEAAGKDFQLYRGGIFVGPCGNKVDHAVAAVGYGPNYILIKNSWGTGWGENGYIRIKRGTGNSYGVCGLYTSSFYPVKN
From the text: We tested the ability of an additional group of Peptide Keto-Compounds to inhibit several proteases in order to evaluate their specificity for Calpain.

[4] = Concentration 100, ten minutes anoxia

CCOC(=O)C(=O)[C@H](CC)NC(=O)[C@H](CC(C)C)NC(=O)OCc1ccccc1 (racemic) [Z-Leu-Abu-COOEt, Z-Leu-DL-Abu-COOEt]
protection of slices from anoxia (FIG. 3) (hippocampal slices [1]; 10 minutes anoxic atmosphere, listed as CX218): protected from the effects of anoxia; also recorded: significantly more effective
Survival of slices after ten minutes anoxia (hippocampal slices [1]; Dose 100 μM, incubation 1 hour): 70%
% Recovery of synaptic transmission after anoxia (hippocampal slices [2]; [4]): 55%
recovery of EPSP amplitude from severe anoxia (FIG. 4) (hippocampal slices [2]; severe anoxia, 2 minutes post fiber volley disappearance): superior to that seen with CI1
Ki [3]: 14 µM
Ki (Papain): 220 µM

CCCC(NC(=O)[C@H](CC(C)C)NC(=O)OCc1ccccc1)C(=O)C(=O)OCC (mixture of isomers) [Z-Leu-Nva-COOEt, Z-Leu-DL-Nva-COOEt]
Ki [3]: 30 µM
Ki (Papain): 150 µM

CC(C)CC(NC(=O)CNC(=O)OC(C)(C)C)C(=O)NC(Cc1ccccc1)C(=O)CCl (stereo not drawn) [Boc-Gly-Leu-Phe-CH2 Cl] (Boc-Gly-Leu-Phe-CH2Cl; configuration not given here)
Survival of slices after ten minutes anoxia (hippocampal slices [1]; Dose 50 μM, incubation 1 hour): 50%
% Recovery of synaptic transmission after anoxia (hippocampal slices [2]; Concentration 50, ten minutes anoxia): 30%

CC(=O)N[C@@H](CC(C)C)C(=O)N[C@@H](CC(C)C)C(=O)N[C@H](C=O)CCCNC(=N)N [Leupeptin, Ac-Leu-Leu-Arg-H, reference compound]
Survival of slices after ten minutes anoxia (hippocampal slices [1]; Dose 1000 μM, incubation 3 hours): 50%
Ki [3]: 6 µM

N=C(N)SCCCOc1oc(=O)c2cc(N)ccc2c1Cl [NH2 -CiTPrOIC (ACITIC), 7-amino-4-chloro-3-(3-isothiureidopropoxy)isocoumarin]
Survival of slices after ten minutes anoxia (hippocampal slices [1]; Dose 20 μM, incubation 1 hour): 50%
% Recovery of synaptic transmission after anoxia (hippocampal slices [2]; Concentration 20, ten minutes anoxia): 60%

CCCCC(NC(=O)C(CC(C)C)NC(=O)OCc1ccccc1)C(=O)C(=O)OCC (stereo not drawn) [Z-Leu-Nle-COOEt, Z-Leu-NLeu-CO2 Et]
Ki [3]: 18 µM
Ki (Papain): 190 µM

CCOC(=O)C(=O)C(Cc1ccccc1)NC(=O)C(CC(C)C)NC(=O)OCc1ccccc1 (stereo not drawn) [Z-Leu-Phe-COOEt]
% Recovery of synaptic transmission after anoxia (hippocampal slices [2]; [4]): 38%
period of anoxia required to produce fiber volley disappearance (FIG. 6) (hippocampal slices [2]; hippocampal slices): substantially lengthens the period of exposure to anoxia required to produce FVD
Ki [3]: > 50 µM
Ki (Papain): 75 µM

From patent US5444042A, “Method of treatment of neurodegeneration with calpain inhibitors” (Cortex Pharmaceuticals, priority 1994, dated 1995)
